Measured values reported in ChEMBL document CHEMBL1201862, “PubChem BioAssay data set” (2004).
Calls of active or inactive are those of the source. Rule as the data show it, for most assays here: actives have a measured EC50 and inactives only a lower limit.

Assays:
[1] = target: Luciferin 4-monooxygenase (Photinus pyralis, UniProt P08659); test: inhibition of purified Photinus pyralis luciferase – biochemical, luminescence, dose response (AID 1891)
[2] = Luminescence Cell-Based Dose Confirmation HTS to Identify Inhibitors of Platelet Dense Granule Release. [Related pubchem assays: 1663 (Primary HTS), 1678 (Summary of Project)]; assay type: functional
[3] = cells; assay type: functional
[4] = target: T1, Microphthalmia-associated transcription factor (Homo sapiens, UniProt O75030); test: reducers of TRPM1 reporter luminescence, concentration series – cell-based, SK-MEL-5, cherry-picked, set 3, MITF inhibitor project, dose response (AID 493073); assay type: functional;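 also: SK-MEL-5 melanoma cells with luciferase driven by the MITF target TRPM1 promoter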
T1 sequence (O75030 whole entry): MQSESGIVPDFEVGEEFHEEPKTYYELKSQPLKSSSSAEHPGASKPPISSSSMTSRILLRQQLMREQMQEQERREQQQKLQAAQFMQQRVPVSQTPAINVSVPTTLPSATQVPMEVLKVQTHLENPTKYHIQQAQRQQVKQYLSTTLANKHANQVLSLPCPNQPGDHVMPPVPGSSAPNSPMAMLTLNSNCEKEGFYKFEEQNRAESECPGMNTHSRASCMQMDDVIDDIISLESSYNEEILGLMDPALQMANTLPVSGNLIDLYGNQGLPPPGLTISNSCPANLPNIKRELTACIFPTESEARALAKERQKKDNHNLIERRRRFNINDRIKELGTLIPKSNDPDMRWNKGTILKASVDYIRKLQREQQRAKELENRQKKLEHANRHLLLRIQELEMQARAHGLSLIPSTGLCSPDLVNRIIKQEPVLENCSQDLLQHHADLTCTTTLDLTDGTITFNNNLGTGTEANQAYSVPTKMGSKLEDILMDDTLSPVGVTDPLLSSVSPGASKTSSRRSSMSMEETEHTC

[5] = target: Large T antigen (Simian virus 40, UniProt P03070); assay type: functional, Betapolyomavirus macacae;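 also: Confirmatory-stage PubChem screen for compounds that inhibit SV40 T antigen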
Sequence of Large T antigen (P03070 whole entry): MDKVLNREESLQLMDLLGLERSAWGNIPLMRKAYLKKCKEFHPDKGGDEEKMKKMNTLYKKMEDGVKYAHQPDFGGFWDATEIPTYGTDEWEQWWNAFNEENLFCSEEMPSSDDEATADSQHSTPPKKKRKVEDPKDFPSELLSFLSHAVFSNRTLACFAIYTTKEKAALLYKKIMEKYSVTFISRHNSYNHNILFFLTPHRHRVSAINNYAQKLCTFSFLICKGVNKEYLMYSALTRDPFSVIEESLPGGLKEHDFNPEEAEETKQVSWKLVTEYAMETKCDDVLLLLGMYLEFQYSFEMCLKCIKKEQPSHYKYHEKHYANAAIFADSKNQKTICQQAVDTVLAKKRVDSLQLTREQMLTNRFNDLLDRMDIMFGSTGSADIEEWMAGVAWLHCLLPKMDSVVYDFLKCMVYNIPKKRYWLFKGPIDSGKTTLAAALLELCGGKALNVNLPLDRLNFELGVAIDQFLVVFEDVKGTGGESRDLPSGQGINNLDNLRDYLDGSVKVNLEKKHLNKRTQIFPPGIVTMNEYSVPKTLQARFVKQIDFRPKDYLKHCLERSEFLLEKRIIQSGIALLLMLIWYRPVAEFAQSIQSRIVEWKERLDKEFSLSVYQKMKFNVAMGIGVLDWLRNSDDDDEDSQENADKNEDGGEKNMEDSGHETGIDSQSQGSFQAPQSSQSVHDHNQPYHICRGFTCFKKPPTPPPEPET

[6] = Trypanosoma cruzi growth suppression in host cells – NIH3T3 host cells, beta-gal luminescence, confirmation (AID 2044); assay type: functional, cell-based;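 also: intracellular parasites grown in NIH/3T3 mouse fibroblasts as host cells; luminescent beta-galactosidase reporter signal from transgenic T. cruzi replicating inside host cells; inhibitors lower the luminescence signal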
[7] = NIH3T3 cell viability loss – ATP luminescence, mouse fibroblasts, counter-screen, dose response (AID 2010); assay type: functional, cell-based;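 also: cells exposed to compound for about 90 hours before reading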
[8] = Luminescence Cell-Based Dose Response HTS to Identify Inhibitors of 5'UTR Stem-Loop Driven Prion Protein mRNA Translation in H4 Neuroglioblastoma Cells. [Related pubchem assays: 1827 (Project Summary), 1813 (Primary HTS)]; assay type: functional
[9] = luciferase reporter signal suppression in cells – H4 neuroglioma cells, luminescence, dose response (AID 1990); assay type: functional, cell-based
[10] = alpha-synuclein stem-loop luciferase translation blockers – H4 neuroglioma cells, luminescence, confirmation (AID 1988); assay type: functional, cell-based
[11] = blockers of HIV-1 envelope-mediated cell-cell fusion – cherry-pick, dose response (AID 652057); assay type: functional, cell-based
[12] = target: T2, Replicative DNA helicase DnaB (Mycobacterium tuberculosis, UniProt P9WMR3); test: DnaB intein splicing inhibitors, dose response, biochemical, cell-free fluorescence (AID 449749); assay type: functional
T2 sequence (P9WMR3 whole entry): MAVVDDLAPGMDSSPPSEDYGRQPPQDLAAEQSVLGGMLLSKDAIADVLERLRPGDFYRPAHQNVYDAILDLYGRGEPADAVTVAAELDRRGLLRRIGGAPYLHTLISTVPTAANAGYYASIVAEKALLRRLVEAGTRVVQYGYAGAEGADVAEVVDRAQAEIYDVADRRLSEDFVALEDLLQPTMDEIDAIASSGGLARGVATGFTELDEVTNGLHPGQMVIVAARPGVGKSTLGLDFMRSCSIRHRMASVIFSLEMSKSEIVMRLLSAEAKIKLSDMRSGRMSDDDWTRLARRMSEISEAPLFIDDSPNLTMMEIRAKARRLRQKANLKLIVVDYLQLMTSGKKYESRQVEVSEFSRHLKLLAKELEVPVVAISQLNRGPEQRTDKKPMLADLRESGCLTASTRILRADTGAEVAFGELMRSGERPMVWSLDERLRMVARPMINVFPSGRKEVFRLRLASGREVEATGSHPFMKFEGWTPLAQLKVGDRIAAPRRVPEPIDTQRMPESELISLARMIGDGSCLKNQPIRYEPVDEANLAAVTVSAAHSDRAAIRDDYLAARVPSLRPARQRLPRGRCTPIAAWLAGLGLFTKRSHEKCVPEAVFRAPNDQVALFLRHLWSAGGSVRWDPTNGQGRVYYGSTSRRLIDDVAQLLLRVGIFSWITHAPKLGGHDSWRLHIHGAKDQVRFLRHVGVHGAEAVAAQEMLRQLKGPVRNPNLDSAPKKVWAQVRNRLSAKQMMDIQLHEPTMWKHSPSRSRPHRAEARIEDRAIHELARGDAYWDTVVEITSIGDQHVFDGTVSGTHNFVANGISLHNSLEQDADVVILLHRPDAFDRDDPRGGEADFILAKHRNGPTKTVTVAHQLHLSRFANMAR

[13] = target: T3, Protein RecA (Mycobacterium tuberculosis, UniProt P9WHJ3); test: Fluorescence Cell-Free Homogeneous Dose Retest to Identify Inhibitors of RecA-Intein Splicing Activity. [Related pubchem assays (depositor defined):AID2097, AID2223, AID489010, AID492950]; assay type: functional
T3 sequence (P9WHJ3 whole entry): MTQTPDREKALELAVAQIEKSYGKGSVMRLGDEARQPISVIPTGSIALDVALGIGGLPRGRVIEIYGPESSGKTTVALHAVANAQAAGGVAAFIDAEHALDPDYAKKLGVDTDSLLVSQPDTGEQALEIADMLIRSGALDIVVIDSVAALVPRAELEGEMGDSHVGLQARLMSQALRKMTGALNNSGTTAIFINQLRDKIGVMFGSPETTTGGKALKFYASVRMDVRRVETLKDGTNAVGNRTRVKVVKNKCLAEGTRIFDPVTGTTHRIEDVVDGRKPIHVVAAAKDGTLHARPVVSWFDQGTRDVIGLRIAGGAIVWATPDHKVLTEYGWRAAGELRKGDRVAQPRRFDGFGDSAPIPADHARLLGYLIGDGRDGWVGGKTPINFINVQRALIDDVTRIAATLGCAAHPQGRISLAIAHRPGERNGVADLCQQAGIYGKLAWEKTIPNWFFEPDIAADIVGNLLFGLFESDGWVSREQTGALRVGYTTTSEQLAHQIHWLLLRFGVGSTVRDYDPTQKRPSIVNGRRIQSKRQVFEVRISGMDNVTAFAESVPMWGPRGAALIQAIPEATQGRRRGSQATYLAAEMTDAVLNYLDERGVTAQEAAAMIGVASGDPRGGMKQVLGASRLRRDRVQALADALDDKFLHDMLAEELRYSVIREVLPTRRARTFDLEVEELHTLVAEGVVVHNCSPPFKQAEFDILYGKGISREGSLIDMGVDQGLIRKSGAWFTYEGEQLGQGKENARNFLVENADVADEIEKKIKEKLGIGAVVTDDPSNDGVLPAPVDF

[14] = target: T4, Rac GTPase-activating protein 1 (Homo sapiens, UniProt Q9H0H5); test: blockers of MgcRacGAP-driven Rac1 GTP hydrolysis – biochemical, ADP Hunter fluorescence, primary and confirmatory, confirmation (AID 624330); assay type: functional
T4 sequence (Q9H0H5 whole entry): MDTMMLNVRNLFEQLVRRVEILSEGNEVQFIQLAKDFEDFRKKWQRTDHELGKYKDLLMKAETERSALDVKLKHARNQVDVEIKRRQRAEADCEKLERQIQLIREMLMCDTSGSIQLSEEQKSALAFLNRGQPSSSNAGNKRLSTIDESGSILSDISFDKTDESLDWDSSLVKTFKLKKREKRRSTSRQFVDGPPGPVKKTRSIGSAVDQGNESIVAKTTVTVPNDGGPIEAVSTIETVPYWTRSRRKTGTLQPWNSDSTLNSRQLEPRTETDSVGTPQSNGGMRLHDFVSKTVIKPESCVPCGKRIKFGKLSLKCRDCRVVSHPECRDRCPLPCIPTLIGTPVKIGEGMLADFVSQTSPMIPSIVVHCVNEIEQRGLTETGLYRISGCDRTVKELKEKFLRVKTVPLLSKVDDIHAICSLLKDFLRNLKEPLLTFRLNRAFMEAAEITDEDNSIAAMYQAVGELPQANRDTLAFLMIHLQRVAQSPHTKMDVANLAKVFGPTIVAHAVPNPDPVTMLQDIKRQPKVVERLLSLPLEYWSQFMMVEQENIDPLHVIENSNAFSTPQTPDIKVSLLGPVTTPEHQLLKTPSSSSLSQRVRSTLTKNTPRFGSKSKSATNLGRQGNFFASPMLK

Sequence of Luciferin 4-monooxygenase (P08659 whole entry): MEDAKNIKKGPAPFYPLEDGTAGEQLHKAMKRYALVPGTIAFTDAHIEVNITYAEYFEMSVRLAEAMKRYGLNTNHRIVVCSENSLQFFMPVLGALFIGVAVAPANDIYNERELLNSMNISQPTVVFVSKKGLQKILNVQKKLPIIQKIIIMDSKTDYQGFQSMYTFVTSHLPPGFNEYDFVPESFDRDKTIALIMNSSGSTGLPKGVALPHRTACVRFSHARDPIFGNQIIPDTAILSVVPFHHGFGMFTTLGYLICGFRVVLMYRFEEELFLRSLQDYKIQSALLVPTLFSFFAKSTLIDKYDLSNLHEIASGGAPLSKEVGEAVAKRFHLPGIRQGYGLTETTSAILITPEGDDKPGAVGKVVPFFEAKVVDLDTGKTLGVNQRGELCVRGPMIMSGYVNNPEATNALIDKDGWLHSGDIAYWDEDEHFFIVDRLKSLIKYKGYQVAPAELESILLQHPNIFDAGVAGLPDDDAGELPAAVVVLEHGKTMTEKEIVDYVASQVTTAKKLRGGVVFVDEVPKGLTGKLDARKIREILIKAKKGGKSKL

## COc1ccc(NC(=O)c2cnn(-c3ccccc3)c2C)cc1
[1]
  EC50: 16.6 µM (active)
[2]
  EC50: 6.03 µM (active)

## O=C1NC(=O)C(=Cc2ccc(-c3ccc(Cl)cc3)o2)C(=O)N1
[3]
  IC50: > 50 µM (active)
[4]
  AC50: 9.2 µM (active)

## CC(C)(C)NC(=O)CCN(/N=C/c1ccc([N+](=O)[O-])o1)C1=NS(=O)(=O)c2ccccc21
[4]
  AC50: 7.18 µM (active)

## C=CCn1c(S)nnc1-c1cc(Cl)ccc1OC
[2]
  EC50: > 112 µM (not active)

## COc1cc(Cn2nnc3ccccc32)ccc1O
[5]
  IC50: 7.55 µM (active)

## O=[N+]([O-])c1ccc(CN2CCN(c3ccc(Cl)cc3)CC2)o1
[6]
  EC50: 0.758 µM (active)
[3]
  IC50: < 0.1 µM (active)
[7]
  EC50: > 60 µM (not active)

## COc1cc2c(cc1OC)-c1cc(Nc3cccc(C)c3)nc(=O)n1CC2
[1]
  EC50: > 112 µM (not active)
[2]
  EC50: 4.03 µM (active)

## CC(=O)Oc1c(C(=O)c2nnc(C)o2)c(=O)n(Cc2ccccc2)c2ccccc12
[4]
  AC50: 6.98 µM (active)

## CCOC(=O)c1cc2cc(OC)ccc2nc1C
[1]
  EC50: > 112 µM (not active)
[2]
  EC50: > 112 µM (not active)

## COc1ccc(C(=O)NC(=O)Nc2cc(C)ccn2)cc1
[8]
  EC50: 0.533 µM (active)
[9]
  EC50: 1.67 µM (active)
[10]
  EC50: 0.367 µM (active)
[4]
  AC50: 4.96 µM (active)

## Cc1ccc(S(=O)(=O)Nc2ccc3c(c2)CC(=O)N([C@@H](C)CO)C[C@H](C)[C@@H](CN(C)Cc2ccc(-c4ccccc4)cc2)O3)cc1
[11]
  AC50: 20.2 µM (active)

## COc1cnn(C2CCCCC2)c(=O)c1O
[3]
  IC50: 33.5 µM (active)

## O=c1cc(C23CC4CC(CC(C4)C2)C3)[nH][nH]1
[12]
  AC50: 2.85 µM (active)
[13]
  EC50: 2.52 µM (active)

## CCn1c(C)nc2cc(C(=O)N/N=C/c3ccc(OC)c(O)c3)ccc21
[14]
  IC50: 80 µM (active)
[5]
  IC50: 4.76 µM (active)

## O=C(Nc1ccc2c(c1)OCO2)Nc1ccccc1F
[1]
  EC50: 1.77 µM (active)
[2]
  EC50: 3.42 µM (active)

## Cc1ccc(OC(S)=Nc2ccc(O)cc2)cc1
[14]
  IC50: 31.6 µM (active)
[5]
  IC50: 13 µM (active)
